{"source": "patent US20220096484A1", "about": "“METHODS AND COMPOSITIONS FOR TREATING CANCER BY TARGETING FATP2 AND MYELOID DERIVED SUPPRESSOR CELLS” (The Wistar Institute of Anatomy and Biology, priority 2019, published 2022)", "key": {"[1]": {"system": "EL-4 tumor cells", "test": "MTT assay after three-day incubation of tumor cells with lipofermata", "assay_type": "cell-based", "details": "EL-4 cells, range of concentrations corresponding to the dose used in vivo (0.2 mg/ml)", "protocol": "(§1) FIGS. 13A-FIG. 13E show the effect of lipofermata treatment on tumor-bearing mice. FIG. 13A, MTT assay after three-day incubation of tumor cells with indicated concentration of lipofermata. FIG. 13B, Percentage and absolute number of tumor-associated antigen (E7-derived peptide)-specific CD8^+ T cells in draining lymph nodes of mice bearing TC-1 tumor and treated with lipofermata (n=3). FIG. 13C, Growth of TC-1 tumors in mice treated with CTLA4 antibody and lipofermata (n=5). FIG. 13D, CD8^+ T cell infiltration of TC-1 tumors in mice treated with CTLA4 antibody and lipofermata. FIG. 13E, Growth of TC-1 tumors in mice treated with PD1 antibody and lipofermata (n=5). Data are mean±s.d. *P<0.05, **P<0.01, ***P<0.001, ****P<0.0001, two-sided Student's t-test (FIG. 13B) or two-way ANOVA test with correction for repeated measurements (FIG. 13E).\n(§2) Tumor cell lines: EL4 (lymphoma), LLC (Lewis Lung Carcinoma), CT26 (colon carcinoma), TC-1 (HPV16 E6/E7 expressing tumor cell line) were obtained from ATCC and F244 (sarcoma) was kindly provided by Dr. R. Schreiber (Washington University, St. Lois, Mo.). All cells were maintained in DMEM medium supplemented with 10% fetal bovine serum (FBS, Sigma-Aldrich, St. Louis, Mo.) at 37° C., 5% CO2. Tumor cells were injected subcutaneously (s.c.) at 5×10^5 cells per mouse. […]"}, "[2]": {"system": "LLC tumor cells", "test": "MTT assay after three-day incubation of tumor cells with lipofermata", "assay_type": "cell-based", "details": "range of concentrations corresponding to the dose used in vivo (0.2 mg/ml)", "protocol": "as §1, §2"}, "[3]": {"system": "tumors in C57BL/6 mice", "test": "Growth of tumors in C57BL/6 mice treated with lipofermata (four tumor models)", "assay_type": "in vivo, mouse", "details": "four tested tumor models, lipofermata 2 mg/kg twice per day s.c., started 8-10 days after tumor injection", "protocol": "FIG. 4A-FIG. 4E, Treatments with lipofermata (2 mg kg^−1 twice per day subcutaneously) started 8-10 days after tumor injection. Anti-CTLA4 antibody (200 μg per mouse, intraperitoneally) was administrated at days 7 and 11 after tumor injection, and anti-CSF1R antibody ([…] per mouse, intraperitoneally) was administered every other day, starting the day after tumor injection. FIG. 4A, Growth of indicated tumors in C57BL/6 mice treated with lipofermata. Representative of two independent experiments (n=4-5 mice per group). FIG. 4B, Growth of LLC tumors in NOD-SCID mice treated with lipofermata (n=5). FIG. 4C, Growth of LLC tumors in mice depleted of CD8 T cells and treated with lipofermata (n=5). FIG. 4D, Growth of LLC tumors in mice treated with anti-CTLA4 antibody and lipofermata (n=5). FIG. 4E, Growth of LLC tumors in mice treated with CSF1R inhibitor and lipofermata (n=5). Data are mean±se.m. *P<0.05, **P<0.01, ***P<0.001, ****P<0.0001 (differences from untreated […] and between treated groups), two-way ANOVA with corrections for multiple comparison. NS, not significant. […]\n(§3) Statistical analysis was performed using unpaired two-tailed Student's t-test with significance determined at 0.05. […] Tumor growth was evaluated using two-way Anova test with Bonferroni correction for multiple comparisons."}, "[4]": {"system": "LLC tumors", "test": "Growth of LLC tumors in mice (lipofermata alone, CD8 T cell depletion, combination with antibodies)", "assay_type": "in vivo, mouse", "protocol": "(§4) FIG. 4A-FIG. 4E, Treatments with lipofermata (2 mg kg^−1 twice per day subcutaneously) started 8-10 days after tumor injection. Anti-CTLA4 antibody (200 μg per mouse, intraperitoneally) was administrated at days 7 and 11 after tumor injection, and anti-CSF1R antibody ([…] per mouse, intraperitoneally) was administered every other day, starting the day after tumor injection. FIG. 4A, Growth of indicated tumors in C57BL/6 mice treated with lipofermata. Representative of two independent experiments (n=4-5 mice per group). FIG. 4B, Growth of LLC tumors in NOD-SCID mice treated with lipofermata (n=5). FIG. 4C, Growth of LLC tumors in mice depleted of CD8 T cells and treated with lipofermata (n=5). FIG. 4D, Growth of LLC tumors in mice treated with anti-CTLA4 antibody and lipofermata (n=5). FIG. 4E, Growth of LLC tumors in mice treated with CSF1R inhibitor and lipofermata (n=5). Data are mean±se.m. *P<0.05, **P<0.01, ***P<0.001, ****P<0.0001 (differences from untreated […] and between treated groups), two-way ANOVA with corrections for multiple comparison. NS, not significant.\n5×10^5 tumor cells were injected s.c. into mice, which formed tumors with a 1.5-cm diameter within 2-3 weeks of injection. Lipofermata was administrated s.c. at dose of 2 mg/kg twice per day. As a control, mice were treated with vehicle alone (DMSO+30% v/v Kolliphor). Treatments with lipofermata started 8-10 days after tumors injections. CSF1R antibody (BioXcell, 300 μg/mouse) was administered every other day starting next day after tumor injection and continued until the mice were sacrificed. PD-1 antibody (clone RMP1-14, BioXcell, 200 μg/mouse) was administered twice a week started 10-12 days after tumor injection. CTLA4-IgG2a (BioXcell, 200 μg/mouse) was administered at day 7 and day 11.\nas §3"}, "[5]": {"system": "LLC tumors in NOD-SCID mice", "test": "Growth of LLC tumors in NOD-SCID mice treated with lipofermata", "assay_type": "in vivo, mouse", "details": "lipofermata 2 mg/kg twice per day s.c.", "protocol": "as §4\n5×10^5 tumor cells were injected s.c. into mice, which formed tumors with a 1.5-cm diameter within 2-3 weeks of injection. Lipofermata was administrated s.c. at dose of 2 mg/kg twice per day. As a control, mice were treated with vehicle alone (DMSO+30% v/v Kolliphor). […]"}, "[6]": {"system": "tumor-associated antigen (E7-derived peptide)-specific CD8+ T cells", "test": "Antigen specific CD8 T cells in draining lymph nodes of TC-1 tumor-bearing mice (MHC tetramer flow cytometry)", "assay_type": "in vivo, mouse", "details": "TC-1 model; lipofermata treatment", "protocol": "as §1, with “Data are mean±s.d. *P<0.05, **P<0.01, ***P<0.001, ****P<0.0001, two-sided Student's t-test (FIG. 13B) or two-way ANOVA test with correction for repeated measurements (FIG. 13E).” left out\nLymph nodes (LNs) were obtained from TB mice and digested for 30 min at 37° C. with collagenase A (0.5 mg/ml; Sigma Aldrich), Dnase I (0.2 mg/ml, Roche), diluted in HBSS with Ca^2+/Mg^2+ and 20 mM EDTA (Invitrogen) was added 5 min at room temperature to stop the reaction. CD8^+ T cells were isolated from LNs of TB mice using EasySep Mouse CD8+ T Cell Enrichment Kit (STEMCELL) and stimulated with anti CD3 and anti CD28 antibodies (BD Biosciences) for 24 h and IFNγ was analyzed by ELISpot (Mabtech), accordingly to manufacturer's instructions. T cell proliferation was evaluated by flow cytometry using CSFE (BioLegend). […]"}}, "data": [{"smiles": "O=C1Nc2ccc(Br)cc2C12NN=C(c1ccccc1)S2", "note": "(stereo not drawn) [lipofermata, 5′-bromo-5-phenyl-spiro[3H-1,3,4-thiadiazole-2,3′-indoline]-2′-one]", "values": [{"measurement": "proliferation of tumor cells in vitro (MTT)", "setting": "[1]", "result": "did not affect proliferation"}, {"measurement": "proliferation of tumor cells in vitro (MTT)", "setting": "[2]", "result": "did not affect proliferation"}, {"measurement": "tumor growth", "setting": "[3]", "result": "significant delay of tumor growth"}, {"measurement": "antitumor effect (LLC tumor growth)", "setting": "[4]; LLC bearing mice, lipofermata 2 mg/kg twice per day s.c., anti-CTLA4 200 μg/mouse days 7 and 11, CSF1R antibody 300 μg/mouse every other day", "result": "had an antitumor effect"}, {"measurement": "blocking of tumor progression", "setting": "[4]; LLC bearing mice, single agents", "result": "neither blocked tumor progression"}, {"measurement": "tumor growth effect after depletion of CD8+ T cells", "setting": "[4]; LLC tumors, immune competent mice depleted of CD8 T cells, lipofermata 2 mg/kg twice per day s.c.", "result": "abrogated the effect of lipofermata"}, {"measurement": "tumor growth delay effect in immune deficient mice", "setting": "[5]", "result": "this effect was absent"}, {"measurement": "absolute numbers of antigen specific T cells in draining lymph nodes", "setting": "[6]", "result": "increased"}, {"measurement": "percentage of antigen specific T cells in draining lymph nodes", "setting": "[6]", "result": "increased"}]}]}
